Reference: PMC7809749, “Tumor vasculature-targeted ^10B delivery by an Annexin A1-binding peptide boosts effects of boron neutron capture therapy” (BMC Cancer, 2021)

Tests used:
[1] = tested on: MBT2 bladder tumor-bearing C3H/He mice; assay: ^10B concentration in tumors and normal organs by prompt gamma-ray analysis; assay type: in vivo, mouse; conditions: for Intratumoral ^10B concentration: IF7 conjugates 7 mg/kg, fructose-^10BPA 0.791 mg/kg, ^10BSH 0.868 mg/kg, MBT2 tumor; for Intratumoral ^10B concentration / ^10B tumor/blood (T/B) ratio: mean ± SD; for ^10B tumor/blood (T/B) ratio: same doses; for Tumor/blood (T/B) ratio, range: by 40 min after injection (range over 5-40 min); for Intratumoral concentration reached: ultralow dose 7 mg/kg iv, MBT2 tumor-bearing mice, discussion summary
Procedure: MBT2 cells (1 × 10^6 cells per mouse) plus 50 μl Matrigel (Corning Inc., NY, USA) were injected subcutaneously using a 27-gauge needle into the right thighs of 8-week-old female C3H/He mice under anesthesia with 2% isoflurane inhalation. The day of injection was defined as day 0. At 4 weeks after MBT2 cells injection, when MBT2 tumors were palpable, mice were randomly divided into four groups of 16 mice each and injected intravenously with: 1) fructose-^10BPA ((0.791 mg/kg), 2) IF7C(^10BPA)RR (7 mg/kg), 3) ^10BSH 0.868 mg/kg), or 4) IF7K(^10BSH)RR (7 mg/kg). Within 5, 10, 20, and 40 min of injection, four mice at each time point were sacrificed by cervical dislocation under anesthesia with 2% isoflurane inhalation. From each mouse, the tumor, brain, lung, heart, liver, kidney, bladder, stomach, intestine, spleen, skin, muscles, and blood were collected in a Teflon tube for ^10B measurement. ^10B concentrations in tissues were measured by prompt gamma-ray spectrometry using a thermal neutron guide tube installed at the Institute for Integrated Radiation and Nuclear Science, Kyoto University (KURNS).

[2] = tested on: murine MBT2 bladder tumor; assay: Nuclear reactor-based BNCT of MBT2 bladder tumor-bearing mice; assay type: in vivo, mouse; conditions: compound-mediated BNCT: 10 mg/kg iv 40 min before neutron irradiation (60 min, 1 MW); MBT2, n = 3; mean ± SD
Procedure: MBT2 cells were injected as described above into the right thighs of 8-week-old female C3H/He mice, and the day of injection defined as day 0. Four weeks later, when MBT2 tumors were palpable, mice were randomly divided into six groups of 3 mice each: 1) untreated control, 2) IF7C(^10BPA)RR, 3) IF7K(^10BSH)RR, 4) neutron-irradiated controls, 5) IF7C(^10BPA)RR-mediated BNCT, and 6) IF7K(^10BSH)RR-mediated BNCT. In Groups 4, 5, and 6, tumors in right thighs were subjected to neutron beam irradiation at the heavy water facility of KURNS Research Reactor for 60 min at a power of 1 MW. Each mouse was held within an acrylic holder during neutron irradiation, and a LiF plate (50 mm thick) was used to shield the body from thermal neutrons, while exposing the tumor. Neutron fluences were measured by radioactivation of gold foils (3 mm diameter; 0.05 mm thick) on surface of both sides of the tumors. Since thermal neutrons were rapidly attenuated in the tumor, the average thermal neutron fluences of both sides were adopted as the fluence irradiated to the tumors. In this study, tumors were irradiated by 1.9 × 10^12 thermal neutrons/cm^2. Thermoluminescent dosimeters for γ-ray dosimetry were attached to tumor surfaces. […] Tumor size was measured using calipers, and tumor volume (V) was calculated as: V = ab^2/2, where a and b are the major and minor axes, respectively. […]

[3] = tested on: human YTS-1 bladder tumor xenograft; assay: Cyclotron accelerator-based BNCT of human YTS-1 xenograft mice; assay type: in vivo; conditions: mean ± SD; for Tumor volume at 4 weeks after start of first BNCT: compound injection without neutron irradiation, YTS-1 xenograft, nude mice, n = 8; for Tumor volume at 4 weeks: compound-mediated BNCT, 20 mg/kg iv 40 min before irradiation, two treatments one week apart, YTS-1, n = 8
Procedure: YTS-1 cells (2 × 10^6 cells per mouse) plus 50 μl Matrigel (Corning Inc.) were injected subcutaneously using a 27-gauge needle into the right thighs of 8-week-old female BALB/c nu/nu mice under anesthesia with 2% isoflurane inhalation. The day of injection was defined as day 0. One week later, when YTS-1 xenografts were palpable, mice were randomly divided into six groups of 8 mice each: 1) untreated control, 2) […], 4) neutron-irradiated controls, 5) IF7C(^10BPA)RR-mediated BNCT, and 6) IF7K(^10BSH)RR-mediated BNCT. In Groups 4, 5, and 6, tumors in thighs were subjected to neutron beam irradiation at the cyclotron-typed accelerator (Sumitomo Heavy Industries Ltd.) in the Aomori Prefecture Quantum Science Center for 60 min at a power of […] at 20 MeV. Radiation of mice was performed as described above. The average of the γ-ray dose was 0.23 Gy. Groups 5 and 6, IF7C(^10BPA)RR or IF7K(^10BSH)RR was administered intravenously 40 min before irradiation at a dose of 20 mg/kg. One week after the first BNCT, the second was administered using both the same method and irradiation method. The tumor size and volume was calculated as above. Four weeks after the first BNCT, all mice were sacrificed by cervical dislocation under anesthesia with 2% isoflurane inhalation, and tumors were weighed and prepared for immunohistochemical analysis.

[4] = tested on: human YTS-1 xenograft tumors; assay: Immunohistochemistry of YTS-1 xenografts (HE, CD8α, CD31, Ki-67, Anxa1); assay type: in vivo; conditions: 3 weeks after second BNCT; for Number of CD8-positive lymphocytes per tumor area / Ki-67 proliferation index: mean ± SD; for Anxa 1 expression vs untreated, compound-only and neutron-irradiated controls: IHC
Procedure: BNCT-treated YTS-1 tumors were collected as described above, fixed in 20% formalin solution and embedded in paraffin. Tissue sections 4 μm thick were mounted on silane-coated glass slides and air-dried for 1 h. Deparaffinized tissue sections underwent heat-induced epitope retrieval using a Histofine antigen retrieval reagent (pH 6.0) (Nichirei Biosciences Inc. Tokyo, Japan) and were then incubated with anti-human Ki-67 antigen (clone MIB-1, 1:2000 dilution) or mouse anti-Anxa1 monoclonal antibody (clone MC16, 1:100 dilution) in phosphate-buffered saline (PBS) containing 5% bovine serum albumin (BSA) at 4 °C overnight. Other sections were treated with heat-induced epitope retrieval with Histofine antigen retrieval reagent (pH 9.0) (Nichirei Biosciences Inc.) and then incubated with rabbit anti-mouse CD8α (antibody (EPR21769, 1:2000 dilution) or anti-mouse CD31 (EPR17259, 1:2000 dilution) in PBS containing 5% BSA at 4 °C overnight. The Envision/HRP rabbit mouse kit was used for antibody detection (Agilent Technologies Japan., Tokyo, Japan). Nuclear counterstaining was performed by incubating sections with hematoxylin solution (Agilent Technologies Japan) for 2 min at room temperature. Eosin alcohol solution (Fujifilm Wako Pure Chemical Corporation) was used to perform HE staining, according to the manufacturer’s instruction. Images (10× objective) were captured using a Keyence BZ-9000 fluorescence microscope (Keyence, Tokyo, Japan) and BZ-II analyzer Ver 2.2 (Keyence). The white balance was adjusted for each specimen.
Six complete and non-overlapping tumor regions of interest (ROI) were selected from each case and saved as .tif files. The number of diaminobenzidine (DAB)-stained nuclei was determined in the ROI using color deconvolution and the particle analysis plug-in of the Fiji platform (ImageJ distribution, http://fiji.sc/Fiji). The mean number of CD8-positive lymphocytes in all six fields was used for statistical analysis. The number of diaminobenzidine (DAB)-stained blood vessels was counted in a ROI using the color deconvolution plug-in of the Fiji platform (ImageJ distribution, http://fiji.sc/Fiji). The mean number of CD31-positive blood vessels in all six fields was used for statistical analysis.
As above, six complete and non-overlapping tumor regions of interest (ROI) were selected and saved as .tif files, and diaminobenzidine (DAB)- and hematoxylin-stained nuclei were counted. Ki-67-positive nuclei were included in the count, regardless of staining intensity, in line with recommendations of the International Ki-67 in Breast Cancer Working Group. The number of DAB-stained nuclei was divided by the sum of DAB- and hematoxylin-stained nuclei, and values were expressed as a percentage. The mean percentage of Ki-67-positive cells in all six field was used for statistical analysis.

[5] = cited from earlier work
Procedure: To facilitate esterase-aided ^10BPA release following delivery to a tumor, we conjugated IF7C to ^10BPA via an ester bond with a propanolamine linker. Following analysis of 584 mg of IF7C(^10BPA)RR, we determined its purity to be 99.5% (Fig. S1A). By contrast, to design a conjugate to be internalized by tumor cells, we conjugated IF7K to ^10BSH directly through an uncleavable linker, N-(6-maleimidocaproyloxy) sulfosuccinimide (Sulfo-EMCS). We synthesized a total of 411 mg IF7K(^10BSH)RR, and determined its purity to be 98.8% (Fig. S1B).

tumor = conditions: after intravenous injection; cited from earlier work
[6] = compound injection without neutron irradiation

## IFLLWQRC(EMCS-^10BPA)RR [IF7C(^10BPA)RR]
[1]; 5 min after iv injection
  Intratumoral ^10B concentration: 9.3 ± 6.9 ppm
  ^10B tumor/blood (T/B) ratio: 3.48 ± 3.49
[1]; 10 min after iv injection
  Intratumoral ^10B concentration: 4.6 ± 0.8 ppm
  ^10B tumor/blood (T/B) ratio: 2.41 ± 0.27
[1]; 20 min after iv injection
  Intratumoral ^10B concentration: 19.9 ± 20.4 ppm
  ^10B tumor/blood (T/B) ratio: 13.54 ± 19.68
[1]; 40 min after iv injection
  Intratumoral ^10B concentration: 4.7 ± 0.5 ppm
  ^10B tumor/blood (T/B) ratio: 2.15 ± 0.50
[1]
  Tumor/blood (T/B) ratio, range: 2.15–13.54
  Intratumoral concentration reached: 20 ppm
[2]
  Tumor volume 3 weeks after BNCT: 2.90 ± 0.49 mm^3
[3]
  Tumor volume at 4 weeks after start of first BNCT: 965 ± 844 mm^3
  Tumor volume at 4 weeks: 123 ± 114 mm^3
[4]; [6]
  Number of CD8-positive lymphocytes per tumor area: 709 ± 328 n/mm^2
[4]; compound-mediated BNCT
  Histology (HE and CD8α staining): tissue necrosis with infiltration of CD8α-positive lymphocytes
  Anxa 1 expression vs untreated, compound-only and neutron-irradiated controls: significantly higher
  Ki-67 proliferation index: 10.82 ± 6.31%
  Number of CD8-positive lymphocytes per tumor area: 4351 ± 1318 n/mm^2

## IFLLWQRK(EMCS-^10BSH)RR [IF7K(^10BSH)RR]
[1]; 5 min after iv injection
  Intratumoral ^10B concentration: 17.8 ± 11.1 ppm
  ^10B tumor/blood (T/B) ratio: 7.61 ± 8.81
[1]; 10 min after iv injection
  Intratumoral ^10B concentration: 27.0 ± 15.3 ppm
  ^10B tumor/blood (T/B) ratio: 10.92 ± 9.89
[1]; 20 min after iv injection
  Intratumoral ^10B concentration: 16.2 ± 16.3 ppm
  ^10B tumor/blood (T/B) ratio: 5.89 ± 3.57
[1]; 40 min after iv injection
  Intratumoral ^10B concentration: 15.4 ± 11.2 ppm
  ^10B tumor/blood (T/B) ratio: 6.28 ± 7.45
[1]
  Tumor/blood (T/B) ratio, range: 5.89–10.92
  Intratumoral concentration reached: 25 ppm
[2]
  Tumor volume 3 weeks after BNCT: 3111 ± 1769 mm^3
[3]
  Tumor volume at 4 weeks after start of first BNCT: 1511 ± 921 mm^3
  Tumor volume at 4 weeks: 69 ± 79 mm^3
[4]; [6]
  Number of CD8-positive lymphocytes per tumor area: 860 ± 262 n/mm^2
[4]; compound-mediated BNCT
  Histology (HE and CD8α staining): tissue necrosis with infiltration of CD8α-positive lymphocytes
  Anxa 1 expression vs untreated, compound-only and neutron-irradiated controls: significantly higher
  Ki-67 proliferation index: 9.73 ± 8.39%
  Number of CD8-positive lymphocytes per tumor area: 4498 ± 890 n/mm^2

## IFLLWQR [IF7]
[5]
  Solubility in aqueous solution: poorly soluble
tumor
  Time for IF7 to target a tumor: 9 min

## p-Boronophenylalanine [^10BPA, reference compound]
[1]; 5 min after iv injection
  Intratumoral ^10B concentration: 2.5 ± 4.4 ppm
  ^10B tumor/blood (T/B) ratio: 0.77 ± 1.33
[1]; 10 min after iv injection
  Intratumoral ^10B concentration: 2.6 ± 3.1 ppm
  ^10B tumor/blood (T/B) ratio: 0.87 ± 0.88
[1]; 20 min after iv injection
  Intratumoral ^10B concentration: 0.0 ± 0.0 ppm
  ^10B tumor/blood (T/B) ratio: 0.0 ± 0.0
[1]; 40 min after iv injection
  Intratumoral ^10B concentration: 5.4 ± 5.0 ppm
  ^10B tumor/blood (T/B) ratio: 3.16 ± 3.35
[1]
  Tumor/blood (T/B) ratio, range: 0.00–3.16

## borocaptate sodium [^10BSH, reference compound]
[1]; 5 min after iv injection
  Intratumoral ^10B concentration: 1.6 ± 1.4 ppm
  ^10B tumor/blood (T/B) ratio: 0.41 ± 0.72
[1]; 10 min after iv injection
  Intratumoral ^10B concentration: 7.5 ± 8.7 ppm
  ^10B tumor/blood (T/B) ratio: 2.46 ± 2.28
[1]; 20 min after iv injection
  Intratumoral ^10B concentration: 17.1 ± 12.8 ppm
  ^10B tumor/blood (T/B) ratio: 8.72 ± 4.98
[1]; 40 min after iv injection
  Intratumoral ^10B concentration: 1.7 ± 0.3 ppm
  ^10B tumor/blood (T/B) ratio: 1.71 ± 1.14
[1]
  Tumor/blood (T/B) ratio, range: 0.41–8.72
